Reference: ChEMBL document CHEMBL1201862, “PubChem BioAssay data set” (2004)
Active and inactive are the calls of the source.

What was measured:
[1] = BHK-21 cell cytotoxicity, cytotoxicity control for flavivirus guanylyltransferase probe project, secondary screen (AID 624078); type: functional
[2] = molecular target: T1, Methionyl-tRNA synthetase, putative (Trypanosoma brucei brucei, UniProt Q38C91); type: functional, Trypanosoma brucei brucei strain 927/4 GUTat10.1
T1 sequence (Q38C91 whole entry): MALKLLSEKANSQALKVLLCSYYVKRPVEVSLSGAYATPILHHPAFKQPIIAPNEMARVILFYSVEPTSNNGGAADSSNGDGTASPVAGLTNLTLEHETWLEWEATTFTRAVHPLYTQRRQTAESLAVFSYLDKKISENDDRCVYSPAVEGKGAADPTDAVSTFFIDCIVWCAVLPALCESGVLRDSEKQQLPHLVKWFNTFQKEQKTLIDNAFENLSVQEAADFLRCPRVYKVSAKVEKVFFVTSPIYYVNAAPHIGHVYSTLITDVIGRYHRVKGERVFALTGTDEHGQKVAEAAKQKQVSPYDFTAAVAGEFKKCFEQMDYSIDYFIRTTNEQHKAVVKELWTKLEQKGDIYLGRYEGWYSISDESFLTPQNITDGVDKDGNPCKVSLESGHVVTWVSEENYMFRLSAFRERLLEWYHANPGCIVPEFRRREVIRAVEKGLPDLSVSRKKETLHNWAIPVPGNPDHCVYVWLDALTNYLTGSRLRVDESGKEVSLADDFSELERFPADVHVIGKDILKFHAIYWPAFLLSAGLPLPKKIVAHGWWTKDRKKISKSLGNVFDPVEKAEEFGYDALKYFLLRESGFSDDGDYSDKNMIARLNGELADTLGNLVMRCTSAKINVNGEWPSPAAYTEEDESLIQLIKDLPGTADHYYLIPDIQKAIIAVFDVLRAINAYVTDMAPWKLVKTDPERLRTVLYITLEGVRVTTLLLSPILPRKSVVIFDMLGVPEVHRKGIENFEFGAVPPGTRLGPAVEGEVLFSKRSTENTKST

[3] = Late stage counterscreen for inhibitors of Trypanosoma brucei methionyl tRNA synthetase (MetRS): Luminescence-based cell-based high throughput dose response assay to identify compounds that are cytotoxic to Jurkat human T lymphocyte cells.; type: functional
[4] = Counterscreen for inhibitors of Trypanosoma brucei methionyl tRNA synthetase (MetRS): Luminescence-based cell-based high throughput dose response assay to identify compounds that are cytotoxic to Jurkat human T lymphocyte cells.; type: functional
[5] = molecular target: T1, Methionyl-tRNA synthetase, putative; type: functional, Trypanosoma brucei brucei strain 927/4 GUTat10.1; remark: listed apart in the source
[6] = A375 melanoma cell viability loss, dose response, counter-screen for MITF inhibitor project, CellTiter-Glo luminescence, dry powder, set 4 (AID 624364); type: functional, cell-based; details: A-375;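 also: A375 melanoma cells are MITF independent so this is a counter screen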
[7] = A375 melanoma cell cytotoxicity, dose response, counter-screen for MITF inhibitor project, CellTiter-Glo luminescence, dry powder, set 2 (AID 624489); type: functional, cell-based; details: A-375;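 also: actives are compounds lowering A375 viability meaning general cytotoxicity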
[8] = inhibitors of non-replicating M. tuberculosis, dose response, luciferase, dry powder (AID 651620); type: functional; details: Mycobacterium tuberculosis
[9] = inhibitors of non-replicating M. tuberculosis, dose response, luciferase, dry powder (AID 651619); type: functional; details: Mycobacterium tuberculosis
[10] = HEK293T cytotoxicity, dose response, cytotoxicity control for miR-122 modulator project, cell-based, inhibitor set, cherry-pick, set 2 (AID 720697); type: functional
[11] = inhibitors of PGC1a acetylation in cells, dose response, cell-based, cherry-picked samples (AID 720514); type: functional;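 also: potency may reflect raised or lowered acetylation signal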
[12] = HEK293T cytotoxicity, dose response, cytotoxicity control for miR-122 modulator project, cell-based, activator set, cherry-pick (AID 720690); type: functional;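 also: HEK293T human cells scored for general mammalian cytotoxicity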
[13] = miR-122 activators in hepatoma reporter cells, dose response, cell-based, Huh7 psiCHECK-miR122, Renilla luciferase, cherry-picked (AID 651956); type: functional;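 also: huh7 hepatoma cells stably carrying a psiCHECK-2 miR-122 sensor plasmid; renilla luciferase signal reporting endogenous miR-122 activity after 48 h compound exposure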
[14] = molecular target: 72 kDa type IV collagenase (Homo sapiens, UniProt P08253); assay: Dose Response validation of uHTS RPN11 inhibitor hits using a MMP-2 Fluorescence assay.; type: functional
Caspase-8 = Caspase-8 (Homo sapiens, UniProt Q14790); assay: caspase-8 inhibition counter-screen, dose response, selectivity assay for caspase-6 inhibitor project, biochemical, Z-IETD-R110 fluorescence, cherry-picked samples (AID 743294)
Prothrombin = Prothrombin (Bos taurus, UniProt P00735); assay: thrombin inhibition, dose response, biochemical, fluorescence polarization, uHTS hits (AID 602369); type: functional
Caspase-7 = Caspase-7 (Homo sapiens, UniProt P55210); assay: human caspase-7 inhibitors, dose response, selectivity assay for caspase-6 inhibitor project, biochemical, DEVD-R110 fluorescence, cherry-pick (AID 743295)
[15] = molecular target: T2, Small ubiquitin-related modifier 1 (Homo sapiens, UniProt P63165); assay: inhibitors of SUMO1 partner interactions, dose response, biochemical, FRET (AID 624383); type: functional; details: read-out: IC50_Mean
[16] = molecular target: 26S proteasome non-ATPase regulatory subunit 14 (Homo sapiens, UniProt O00487); assay: inhibition of proteasome subunit RPN11 – biochemical, fluorescence polarization, uHTS hits, confirmation (AID 602368); type: functional
[17] = molecular target: T3, Carboxy-terminal domain RNA polymerase II polypeptide A small phosphatase 1 (Homo sapiens, UniProt Q9GZU7); assay: inhibitors of CTDSP1, concentration-response testing, biochemical assay, absorbance-based, actives from ultra-high-throughput screening (AID 540297); type: functional
T3 sequence (Q9GZU7 whole entry): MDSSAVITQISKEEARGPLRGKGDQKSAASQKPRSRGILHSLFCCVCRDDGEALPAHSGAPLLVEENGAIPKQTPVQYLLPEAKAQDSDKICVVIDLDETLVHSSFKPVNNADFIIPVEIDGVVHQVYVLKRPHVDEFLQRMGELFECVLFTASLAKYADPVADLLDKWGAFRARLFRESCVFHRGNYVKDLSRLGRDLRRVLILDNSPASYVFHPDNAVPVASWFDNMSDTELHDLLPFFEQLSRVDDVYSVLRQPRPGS

Caspase-6 = molecular target: T4, Caspase-6 (Homo sapiens, UniProt P55212); assay: human caspase-6 inhibitors, dose response, biochemical, VEID-R110 fluorescence, cherry-pick (AID 720632)
T4 sequence (P55212 whole entry): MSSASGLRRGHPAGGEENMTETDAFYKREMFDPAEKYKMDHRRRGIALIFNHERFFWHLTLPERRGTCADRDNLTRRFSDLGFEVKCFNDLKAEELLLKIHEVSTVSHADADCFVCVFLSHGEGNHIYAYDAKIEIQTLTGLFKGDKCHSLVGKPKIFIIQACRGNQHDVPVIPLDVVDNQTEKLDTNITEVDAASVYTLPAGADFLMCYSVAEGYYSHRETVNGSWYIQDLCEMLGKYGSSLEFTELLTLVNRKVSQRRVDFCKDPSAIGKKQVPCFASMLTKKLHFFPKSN

[18] = molecular target: T2, Small ubiquitin-related modifier 1; assay: inhibitors of SUMO1 peptide binding, dose response, biochemical, fluorescence polarization, uHTS hits (AID 624382); type: functional; details: read-out: IC50_Mean
[19] = THP-1 cell cytotoxicity, dose response, cytotoxicity control for Vif-APOBEC3G degradation inhibitor project, THP-1 cells (AID 1117359); type: functional; details: Human immunodeficiency virus 1, THP-1
[20] = molecular target: DNA (cytosine-5)-methyltransferase 1 (Homo sapiens, UniProt P26358); assay: DNMT1 methyltransferase inhibitors, confirmation, biochemical, fluorescent molecular beacon (AID 602386); type: functional
[21] = Late-stage results from the probe development effort to identify antagonists of arginine vasopressin receptor 1a (AVPR1a): fluorescence-based cell-based dose response OXTR inhibition counterscreen assay.; type: functional
[22] = Late-stage results from the probe development effort to identify antagonists of arginine vasopressin receptor 1a (AVPR1a): fluorescence-based cell-based dose response AVPR1a inhibition assay.; type: functional
Vasopressin V1b receptor = Vasopressin V1b receptor (Homo sapiens, UniProt P47901); assay: Late-stage results from the probe development effort to identify antagonists of arginine vasopressin receptor 1a (AVPR1a): fluorescence-based cell-based dose response AVPR1b inhibition counterscreen assay.; type: functional
Vasopressin V2 receptor = Vasopressin V2 receptor (Homo sapiens, UniProt P30518); assay: Late-stage results from the probe development effort to identify antagonists of arginine vasopressin receptor 1a (AVPR1a): fluorescence-based cell-based dose response AVPR2 inhibition counterscreen assay.; type: functional
[23] = molecular target: 1-phosphatidylinositol 4,5-bisphosphate phosphodiesterase gamma-1 (Homo sapiens, UniProt P19174); assay: Counterscreen for inhibitors of phospholipase C isozymes (PLC-B3): Fluorescence-based biochemical high throughput dose response assay to identify inhibitors of phospholipase C isozymes (PLC-gamma1).
[24] = molecular target: 1-phosphatidylinositol 4,5-bisphosphate phosphodiesterase beta-3 (Homo sapiens, UniProt Q01970); assay: Fluorescence-based biochemical high throughput dose response assay to identify inhibitors of phospholipase C isozymes (PLC-B3).
[25] = molecular target: Glutathione-S-transferase (Schistosoma japonicum, UniProt Q26513); assay: biotin-GST/anti-GST TR-FRET signal inhibitors, dose response, artefact control for Vif-APOBEC3G degradation inhibitor project, biochemical (AID 1117362); type: functional
[26] = luciferase signal loss, tTA control fusion, HeLa F-luc tTA cells, dry powder, counter-screen for HIV Env fusion inhibitor project, dose response (AID 687021); type: functional, cell-based
[27] = HIV Env cell-cell fusion inhibitors, dose response, HIV entry, plate reader, dry powder (AID 687023); type: functional, cell-based
[28] = CEM21 cell cytotoxicity, dose response, cytotoxicity control, plate reader, dry powder (AID 687026); type: functional, cell-based

T2 sequence (P63165 whole entry): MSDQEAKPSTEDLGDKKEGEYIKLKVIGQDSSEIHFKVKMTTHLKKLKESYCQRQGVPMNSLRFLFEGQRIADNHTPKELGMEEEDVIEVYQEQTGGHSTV
Sequence of Vasopressin V2 receptor (P30518 whole entry): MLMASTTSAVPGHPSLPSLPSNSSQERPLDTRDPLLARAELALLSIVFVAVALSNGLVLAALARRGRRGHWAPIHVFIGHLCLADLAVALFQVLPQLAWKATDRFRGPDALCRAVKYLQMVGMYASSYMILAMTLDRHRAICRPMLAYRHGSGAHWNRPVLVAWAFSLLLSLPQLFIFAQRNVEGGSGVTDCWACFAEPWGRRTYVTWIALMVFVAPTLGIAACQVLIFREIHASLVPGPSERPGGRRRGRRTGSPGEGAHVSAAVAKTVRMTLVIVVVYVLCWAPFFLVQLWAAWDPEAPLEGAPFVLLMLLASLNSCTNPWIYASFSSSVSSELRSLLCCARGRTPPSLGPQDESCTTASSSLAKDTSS
Sequence of DNA (cytosine-5)-methyltransferase 1 (P26358 whole entry): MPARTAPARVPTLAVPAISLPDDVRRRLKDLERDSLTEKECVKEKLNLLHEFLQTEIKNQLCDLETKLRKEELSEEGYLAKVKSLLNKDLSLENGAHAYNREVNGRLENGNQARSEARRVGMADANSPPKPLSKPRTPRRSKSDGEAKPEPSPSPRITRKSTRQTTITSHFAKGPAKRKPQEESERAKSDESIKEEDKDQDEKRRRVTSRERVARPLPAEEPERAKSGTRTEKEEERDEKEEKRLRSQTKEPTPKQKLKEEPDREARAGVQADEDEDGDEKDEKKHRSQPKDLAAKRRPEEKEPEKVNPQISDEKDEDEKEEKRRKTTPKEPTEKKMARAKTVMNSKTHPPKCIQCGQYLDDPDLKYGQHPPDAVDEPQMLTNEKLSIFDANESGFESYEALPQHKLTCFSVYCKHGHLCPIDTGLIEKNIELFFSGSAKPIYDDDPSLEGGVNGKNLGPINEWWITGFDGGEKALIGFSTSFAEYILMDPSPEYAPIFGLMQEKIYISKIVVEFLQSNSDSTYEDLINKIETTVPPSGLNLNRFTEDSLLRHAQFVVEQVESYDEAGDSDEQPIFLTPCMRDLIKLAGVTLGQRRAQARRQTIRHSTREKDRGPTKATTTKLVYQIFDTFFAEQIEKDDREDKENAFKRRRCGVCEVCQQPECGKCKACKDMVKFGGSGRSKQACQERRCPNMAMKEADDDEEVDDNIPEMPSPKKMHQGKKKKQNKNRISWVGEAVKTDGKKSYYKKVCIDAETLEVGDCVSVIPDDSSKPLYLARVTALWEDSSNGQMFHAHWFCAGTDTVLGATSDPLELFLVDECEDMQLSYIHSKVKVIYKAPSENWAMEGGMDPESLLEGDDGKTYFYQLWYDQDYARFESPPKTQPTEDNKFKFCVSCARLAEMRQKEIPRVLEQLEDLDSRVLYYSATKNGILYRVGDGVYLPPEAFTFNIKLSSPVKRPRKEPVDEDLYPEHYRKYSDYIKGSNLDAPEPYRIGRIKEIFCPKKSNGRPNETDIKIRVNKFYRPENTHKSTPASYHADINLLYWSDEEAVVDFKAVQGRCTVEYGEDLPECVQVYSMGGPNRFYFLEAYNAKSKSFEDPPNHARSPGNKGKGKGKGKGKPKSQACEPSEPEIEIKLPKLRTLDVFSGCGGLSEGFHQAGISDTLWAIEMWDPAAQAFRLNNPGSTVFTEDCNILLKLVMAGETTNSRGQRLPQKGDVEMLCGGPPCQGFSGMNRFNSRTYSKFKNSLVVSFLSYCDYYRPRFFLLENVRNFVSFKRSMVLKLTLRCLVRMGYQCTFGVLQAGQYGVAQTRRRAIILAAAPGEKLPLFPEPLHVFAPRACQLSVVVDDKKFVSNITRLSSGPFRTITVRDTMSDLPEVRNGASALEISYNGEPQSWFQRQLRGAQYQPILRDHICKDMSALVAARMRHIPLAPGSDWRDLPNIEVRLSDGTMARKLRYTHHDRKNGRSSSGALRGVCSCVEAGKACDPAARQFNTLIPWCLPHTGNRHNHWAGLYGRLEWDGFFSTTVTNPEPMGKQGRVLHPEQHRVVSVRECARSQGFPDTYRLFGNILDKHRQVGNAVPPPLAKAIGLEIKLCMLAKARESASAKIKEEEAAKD
Sequence of 1-phosphatidylinositol 4,5-bisphosphate phosphodiesterase gamma-1 (P19174 whole entry): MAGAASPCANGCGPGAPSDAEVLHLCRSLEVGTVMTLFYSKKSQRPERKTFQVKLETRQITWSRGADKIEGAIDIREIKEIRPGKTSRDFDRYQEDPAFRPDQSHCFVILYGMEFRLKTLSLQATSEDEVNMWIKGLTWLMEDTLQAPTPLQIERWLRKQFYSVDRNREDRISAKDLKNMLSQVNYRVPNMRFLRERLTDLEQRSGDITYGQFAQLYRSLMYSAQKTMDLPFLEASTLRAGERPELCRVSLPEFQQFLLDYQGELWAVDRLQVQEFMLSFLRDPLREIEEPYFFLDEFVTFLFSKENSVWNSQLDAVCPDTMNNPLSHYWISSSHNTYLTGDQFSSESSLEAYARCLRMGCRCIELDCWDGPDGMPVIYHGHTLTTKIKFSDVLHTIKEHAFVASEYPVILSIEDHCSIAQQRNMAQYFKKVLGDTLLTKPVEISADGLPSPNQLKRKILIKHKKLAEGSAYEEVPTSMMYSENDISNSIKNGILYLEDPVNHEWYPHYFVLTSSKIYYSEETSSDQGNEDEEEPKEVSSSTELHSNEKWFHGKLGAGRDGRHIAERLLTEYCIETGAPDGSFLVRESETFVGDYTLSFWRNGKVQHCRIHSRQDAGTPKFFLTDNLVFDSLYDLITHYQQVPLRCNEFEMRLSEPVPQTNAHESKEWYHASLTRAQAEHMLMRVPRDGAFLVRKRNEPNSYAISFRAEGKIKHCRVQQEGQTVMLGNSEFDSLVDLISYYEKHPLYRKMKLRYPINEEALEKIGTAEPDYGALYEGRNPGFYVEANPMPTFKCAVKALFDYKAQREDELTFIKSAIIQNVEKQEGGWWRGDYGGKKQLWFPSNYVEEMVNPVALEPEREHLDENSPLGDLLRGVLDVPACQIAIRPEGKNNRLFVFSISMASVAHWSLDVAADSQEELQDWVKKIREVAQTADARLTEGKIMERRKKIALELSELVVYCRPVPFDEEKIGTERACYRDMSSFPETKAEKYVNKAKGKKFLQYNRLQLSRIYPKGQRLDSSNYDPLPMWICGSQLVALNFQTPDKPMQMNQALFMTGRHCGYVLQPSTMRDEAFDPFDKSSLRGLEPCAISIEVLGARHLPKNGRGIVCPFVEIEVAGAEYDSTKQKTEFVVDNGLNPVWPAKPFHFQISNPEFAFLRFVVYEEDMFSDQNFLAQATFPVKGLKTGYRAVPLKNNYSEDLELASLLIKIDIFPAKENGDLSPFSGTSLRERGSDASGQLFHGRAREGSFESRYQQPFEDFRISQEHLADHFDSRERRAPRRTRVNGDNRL
Sequence of Glutathione-S-transferase (Q26513 whole entry, the tested form may be a part): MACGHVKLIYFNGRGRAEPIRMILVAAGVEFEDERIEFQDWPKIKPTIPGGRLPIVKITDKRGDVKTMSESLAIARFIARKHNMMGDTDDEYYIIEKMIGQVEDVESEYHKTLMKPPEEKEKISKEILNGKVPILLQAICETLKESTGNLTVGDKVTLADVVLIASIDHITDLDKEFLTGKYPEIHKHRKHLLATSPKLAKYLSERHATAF
Sequence of Caspase-8 (Q14790 217-374 limits assumed): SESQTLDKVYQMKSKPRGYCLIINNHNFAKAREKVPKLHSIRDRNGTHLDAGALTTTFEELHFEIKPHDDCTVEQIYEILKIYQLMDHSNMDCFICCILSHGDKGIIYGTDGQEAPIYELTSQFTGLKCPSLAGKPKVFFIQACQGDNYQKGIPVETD
Sequence of Caspase-8 (Q14790 385-479 limits assumed): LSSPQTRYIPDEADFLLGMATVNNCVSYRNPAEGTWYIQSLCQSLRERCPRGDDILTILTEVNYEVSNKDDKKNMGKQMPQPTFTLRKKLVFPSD
Sequence of Vasopressin V1b receptor (P47901 whole entry): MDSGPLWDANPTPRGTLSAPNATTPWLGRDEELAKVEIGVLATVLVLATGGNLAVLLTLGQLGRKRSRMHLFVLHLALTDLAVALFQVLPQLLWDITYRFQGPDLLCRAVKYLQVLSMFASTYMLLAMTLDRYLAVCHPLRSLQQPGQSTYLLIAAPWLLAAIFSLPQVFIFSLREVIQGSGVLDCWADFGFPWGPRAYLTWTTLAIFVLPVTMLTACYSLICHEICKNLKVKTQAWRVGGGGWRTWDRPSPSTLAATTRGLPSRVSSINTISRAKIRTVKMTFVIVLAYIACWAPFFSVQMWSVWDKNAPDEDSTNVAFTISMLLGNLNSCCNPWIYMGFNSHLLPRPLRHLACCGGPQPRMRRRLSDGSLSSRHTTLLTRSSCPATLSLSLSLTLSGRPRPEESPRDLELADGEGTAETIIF
Sequence of 72 kDa type IV collagenase (P08253 whole entry): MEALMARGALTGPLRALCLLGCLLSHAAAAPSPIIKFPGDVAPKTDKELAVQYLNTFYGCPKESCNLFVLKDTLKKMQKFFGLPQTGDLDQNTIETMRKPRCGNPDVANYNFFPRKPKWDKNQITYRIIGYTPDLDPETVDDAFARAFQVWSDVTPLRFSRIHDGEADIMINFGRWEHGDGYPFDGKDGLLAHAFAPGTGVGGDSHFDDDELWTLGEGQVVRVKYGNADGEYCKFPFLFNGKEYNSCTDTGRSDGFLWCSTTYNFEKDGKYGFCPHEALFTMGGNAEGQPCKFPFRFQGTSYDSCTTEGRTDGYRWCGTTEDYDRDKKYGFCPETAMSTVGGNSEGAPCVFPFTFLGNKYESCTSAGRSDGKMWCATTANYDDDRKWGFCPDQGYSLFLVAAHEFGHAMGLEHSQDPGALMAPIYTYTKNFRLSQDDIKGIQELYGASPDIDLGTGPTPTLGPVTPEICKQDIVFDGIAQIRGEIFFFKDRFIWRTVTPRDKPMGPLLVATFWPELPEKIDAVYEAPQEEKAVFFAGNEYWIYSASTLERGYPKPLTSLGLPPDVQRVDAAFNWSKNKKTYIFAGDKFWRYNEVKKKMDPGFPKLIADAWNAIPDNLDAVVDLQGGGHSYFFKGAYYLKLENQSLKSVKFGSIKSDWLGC

In the case of O=[N+]([O-])c1cccc(S(=O)(=O)Nc2cc(Sc3nc4ccccc4s3)c(O)c3ccccc23)c1, the CC50 [1] is reported as 11.5 µM (active).
With O=C1CC(SCc2nc3ccccc3[nH]2)C(=O)N1c1cccc(Cl)c1 (centres undefined) the IC50 [2] was 3.81 µM (active), the IC50 [3] was > 83.3 µM (inactive) and the IC50 [4] was 65 µM (inactive). For the same molecule, the IC50 [5] was 2.6 µM (active).
With COc1ccc(C2=C(NC(=O)c3cccc(Cl)c3)C(=O)c3ccccc3C2=O)cc1 the AC50 [6] was 24.1 µM (active) and the AC50 [7] was 18.2 µM (active).
For c1ccc(-c2nnc(SCC3CC3)o2)cc1, the IC90 [8] was 2 µM (active) and the IC90 [9] was 2 µM (active).
For COc1ccc(C#Cc2ccc([C@@H]3[C@H](CO)N4CCCCN(C(=O)Nc5ccccc5)C[C@@H]34)cc2)cc1, the AC50 [10] was 0.405 µM (active), the AC50 [11] was 9.62 µM (active) and the AC50 [12] was 7.77 µM (active). For the same molecule, the AC50 [13] was 7.42 µM (active).
With Cc1ccc(NC(=O)CN(C)C(=O)c2cccc(-n3cccc3)c2)cc1 the IC50 [14] was 18.4 µM (active), the AC50 (Caspase-8) was > 70 µM (inactive) and the IC50 (Prothrombin) was 86.9 µM (active). The AC50 (Caspase-7) was > 70 µM (inactive), the IC50 [15] was 5.95 µM (active) and the IC50 [16] was 11 µM (active). For the same molecule, the IC50 [17] was 5.68 µM (active), the AC50 (Caspase-6) was 1.5 µM (active) and the IC50 [18] was > 66.6 µM (inactive). The CC50 [19] was > 40 µM (active) and the IC50 [20] was 9.26 µM (active).
In the case of COc1ccccc1N(CC1CC1)C(=O)N1CCN(c2ccccc2C)CC1, the IC50 [21] is reported as 12.3 µM (inactive), the IC50 [22] is reported as 0.292 µM (active) and the IC50 (Vasopressin V1b receptor) is reported as 17.9 µM (inactive). For the same molecule, the IC50 (Vasopressin V2 receptor) was 12.3 µM (inactive).
With COc1ccc(NC(=O)c2sc3cc(C(F)(F)F)cnc3c2-c2cccs2)cc1 the IC50 [23] was > 122 µM (inactive) and the IC50 [24] was > 122 µM (inactive).
In the case of CCOC(=O)C1CCCC12Nc1cccc3cccc(c13)N2 (centres undefined), the IC50 [25] is reported as > 100 µM (active).
In the case of COC(=O)COc1ccc(S(=O)(=O)NCc2ccncc2)cc1, the AC50 [26] is reported as > 70 µM (inactive), the AC50 [27] is reported as 20.7 µM (active) and the AC50 [28] is reported as > 70 µM (inactive).
